Legend:
[1] = biological target: T1, DDR2 (Homo sapiens, UniProt Q16832); assay: LANCE ULTRA kinase assay, DDR2; format: biochemical
T1 sequence (Q16832 22-855): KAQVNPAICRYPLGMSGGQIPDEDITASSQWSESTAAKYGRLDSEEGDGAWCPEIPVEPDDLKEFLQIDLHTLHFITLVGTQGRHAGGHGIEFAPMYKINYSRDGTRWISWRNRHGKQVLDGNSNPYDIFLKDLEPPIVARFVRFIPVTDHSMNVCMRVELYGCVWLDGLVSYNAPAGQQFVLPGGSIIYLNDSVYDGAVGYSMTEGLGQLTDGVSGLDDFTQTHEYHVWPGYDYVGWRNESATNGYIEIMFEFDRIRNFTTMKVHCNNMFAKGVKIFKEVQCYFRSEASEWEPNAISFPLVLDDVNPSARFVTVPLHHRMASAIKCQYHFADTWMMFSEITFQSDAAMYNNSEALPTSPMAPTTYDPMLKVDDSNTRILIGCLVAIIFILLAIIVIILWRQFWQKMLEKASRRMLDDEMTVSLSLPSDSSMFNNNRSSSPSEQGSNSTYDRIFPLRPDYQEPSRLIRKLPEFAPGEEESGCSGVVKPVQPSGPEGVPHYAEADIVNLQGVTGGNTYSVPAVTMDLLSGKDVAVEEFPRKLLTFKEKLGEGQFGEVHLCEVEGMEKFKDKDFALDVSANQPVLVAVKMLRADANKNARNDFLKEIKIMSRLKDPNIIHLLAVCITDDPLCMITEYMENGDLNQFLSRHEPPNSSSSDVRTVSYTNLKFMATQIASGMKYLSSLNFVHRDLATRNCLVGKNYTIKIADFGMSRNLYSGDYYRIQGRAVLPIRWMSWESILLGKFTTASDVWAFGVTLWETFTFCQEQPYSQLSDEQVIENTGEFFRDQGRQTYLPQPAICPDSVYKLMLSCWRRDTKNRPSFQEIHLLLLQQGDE

[2] = biological target: T2, TRKB (Homo sapiens, UniProt Q16620); assay: KINOMEscan binding constant, TRKB; conditions: read-out: Binding affinity (Kd, nM) TRKB
T2 construct: purchased DiscoveRx

[3] = biological target: DDR1 (Homo sapiens, UniProt Q08345)
DDR1, sequence (Q08345 19-913): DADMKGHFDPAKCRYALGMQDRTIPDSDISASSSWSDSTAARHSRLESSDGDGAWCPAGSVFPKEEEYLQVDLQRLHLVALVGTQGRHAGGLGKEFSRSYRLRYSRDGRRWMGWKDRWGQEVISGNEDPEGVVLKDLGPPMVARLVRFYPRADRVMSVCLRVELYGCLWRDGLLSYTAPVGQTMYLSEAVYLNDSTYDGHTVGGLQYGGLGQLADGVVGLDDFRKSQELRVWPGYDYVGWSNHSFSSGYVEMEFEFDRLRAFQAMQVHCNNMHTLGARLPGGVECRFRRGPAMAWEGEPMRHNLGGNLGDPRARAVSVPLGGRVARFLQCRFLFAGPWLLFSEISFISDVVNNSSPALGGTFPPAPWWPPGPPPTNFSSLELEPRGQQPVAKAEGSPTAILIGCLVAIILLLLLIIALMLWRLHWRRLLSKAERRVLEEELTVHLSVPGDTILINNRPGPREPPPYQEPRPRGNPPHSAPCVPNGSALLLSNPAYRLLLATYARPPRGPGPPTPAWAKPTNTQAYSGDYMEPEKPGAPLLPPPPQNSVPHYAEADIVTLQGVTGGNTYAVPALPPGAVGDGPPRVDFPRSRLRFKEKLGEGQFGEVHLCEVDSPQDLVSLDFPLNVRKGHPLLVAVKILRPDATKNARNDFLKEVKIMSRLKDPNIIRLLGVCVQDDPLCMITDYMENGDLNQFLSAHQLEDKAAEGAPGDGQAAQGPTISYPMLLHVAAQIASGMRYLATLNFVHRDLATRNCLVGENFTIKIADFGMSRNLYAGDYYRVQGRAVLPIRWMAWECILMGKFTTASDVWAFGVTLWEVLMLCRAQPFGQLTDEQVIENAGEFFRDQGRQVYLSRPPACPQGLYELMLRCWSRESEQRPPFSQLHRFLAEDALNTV

T2 sequence (Q16620 32-822): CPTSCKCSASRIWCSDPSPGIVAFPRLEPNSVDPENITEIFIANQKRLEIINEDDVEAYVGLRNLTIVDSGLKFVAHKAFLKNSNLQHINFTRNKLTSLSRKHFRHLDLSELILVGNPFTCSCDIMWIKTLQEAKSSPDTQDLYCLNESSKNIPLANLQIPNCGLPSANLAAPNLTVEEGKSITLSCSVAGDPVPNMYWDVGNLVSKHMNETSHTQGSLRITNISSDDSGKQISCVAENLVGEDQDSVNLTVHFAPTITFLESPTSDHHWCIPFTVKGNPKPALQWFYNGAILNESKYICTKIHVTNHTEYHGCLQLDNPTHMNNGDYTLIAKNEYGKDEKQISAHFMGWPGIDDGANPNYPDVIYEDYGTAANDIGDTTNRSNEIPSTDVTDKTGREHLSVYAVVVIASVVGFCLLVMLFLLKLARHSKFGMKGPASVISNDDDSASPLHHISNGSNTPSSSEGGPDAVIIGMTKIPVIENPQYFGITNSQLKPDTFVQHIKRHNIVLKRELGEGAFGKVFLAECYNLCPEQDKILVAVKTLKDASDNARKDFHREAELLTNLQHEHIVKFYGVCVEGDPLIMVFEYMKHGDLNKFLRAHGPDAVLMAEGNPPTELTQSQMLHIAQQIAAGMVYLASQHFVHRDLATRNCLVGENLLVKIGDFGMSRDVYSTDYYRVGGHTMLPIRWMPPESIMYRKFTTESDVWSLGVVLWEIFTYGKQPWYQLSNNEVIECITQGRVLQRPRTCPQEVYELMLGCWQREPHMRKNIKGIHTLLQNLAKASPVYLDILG

IC50 [1] | Kd [2] | DDR1 inhibition, result in words [3] | SMILES
> 10 µM | > 1000 nM | almost no DDR1 inhibition | CC(C)[C@@H]1CN(c2cncnc2)Cc2cc(C(=O)Nc3cc(CN4CCN(C)CC4)cc(C(F)(F)F)c3)ccc21 [Compound 6g]
> 10 µM | 340 ± 5 nM | substantial potency loss | CC(C)[C@H]1CN(c2cncnc2)Cc2cc(C(=O)Nc3cc(CN4CCN(C)CC4)cc(C(F)(F)F)c3)ccc21 [Compound 6f]
> 4 µM | 94 ± 6 nM |  | CN1CCN(Cc2cc(NC(=O)c3ccc4c(c3)CN(c3cccnc3)CC4)cc(C(F)(F)F)c2)CC1 [Compound 6h]
 | 5.2 ± 1 nM |  | C[C@H]1CN(c2cncnc2)Cc2cc(C(=O)Nc3cc(CN4CCN(C)CC4)cc(C(F)(F)F)c3)ccc21 [Compound 6b]
> 7.9 µM | 29 ± 5.5 nM |  | CN1CCN(Cc2cc(NC(=O)c3ccc4c(c3)CN(c3cncnc3)CC4)cc(C(F)(F)F)c2)CC1 [Compound 6a]
 | 36 ± 2.5 nM |  | C[C@@H]1CN(c2cncnc2)Cc2cc(C(=O)Nc3cc(CN4CCN(C)CC4)cc(C(F)(F)F)c3)ccc21 [Compound 6c]
> 10 µM | 500 ± 30 nM |  | CC[C@@H]1CN(c2cncnc2)Cc2cc(C(=O)Nc3cc(CN4CCN(C)CC4)cc(C(F)(F)F)c3)ccc21 [Compound 6e]
0.546 ± 0.049 µM | 22 ± 1 nM |  | CC[C@H]1CN(c2cncnc2)Cc2cc(C(=O)Nc3cc(CN4CCN(C)CC4)cc(C(F)(F)F)c3)ccc21 [Compound 6d]

SMILES | IC50 [1] | Kd [2] | DDR1 inhibition, result in words [3]
CN1CCN(Cc2cc(NC(=O)c3ccc4c(c3)CN(c3ccccc3)CC4)cc(C(F)(F)F)c2)CC1 [Compound 6i] | > 10 µM | > 1000 nM | totally abolished DDR1 inhibitory potency

Reference: PMC5053573, “Structure-Based Design of Tetrahydroisoquinoline-7-carboxamides as Selective Discoidin Domain Receptor 1 (DDR1) Inhibitors” (Journal of Medicinal Chemistry, 2016)
